Legend:
Assay in all cases: relative viability (nuclei count vs DMSO), 5 days (fraction); higher = more cells survive
BEN = test system: BEN
Outline: (§1)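 Dosing by pin tool came one day after lung cancer cell lines were seeded in 1536-well plates, using either one drug or a fixed anchor-drug dose plus five library-drug doses (not always all listed) in √10 steps. After 5 days, nuclei were counted on 4× images. Relative viability is treated-well nuclei count divided by vehicle-well nuclei count, and values are medians of duplicate plates.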

CAL-12T = test system: CAL-12T
Outline: as §1

EKVX = test system: EKVX
Outline: as §1

HCC-366 = test system: HCC-366
Outline: as §1

LOU-NH91 = test system: LOU-NH91
Outline: as §1

LU99A = test system: LU99A
Outline: as §1

NCI-H1355 = test system: NCI-H1355
Outline: as §1

NCI-H1395 = test system: NCI-H1395
Outline: as §1

NCI-H1437 = test system: NCI-H1437
Outline: as §1

NCI-H1563 = test system: NCI-H1563
Outline: as §1

NCI-H1650 = test system: NCI-H1650
Outline: as §1

NCI-H1651 = test system: NCI-H1651
Outline: as §1

NCI-H1734 = test system: NCI-H1734
Outline: as §1

NCI-H1755 = test system: NCI-H1755
Outline: as §1

NCI-H1975 = test system: NCI-H1975
Outline: as §1

NCI-H2023 = test system: NCI-H2023
Outline: as §1

NCI-H2085 = test system: NCI-H2085
Outline: as §1

NCI-H2342 = test system: NCI-H2342
Outline: as §1

NCI-H358 = test system: NCI-H358
Outline: as §1

NCI-H441 = test system: NCI-H441
Outline: as §1

NCI-H460 = test system: NCI-H460
Outline: as §1

NCI-H838 = test system: NCI-H838
Outline: as §1

CC1(C)CCC(c2ccc(Cl)cc2)=C(CN2CCN(c3ccc(C(=O)NS(=O)(=O)c4ccc(N[C@H](CCN5CCOCC5)CSc5ccccc5)c(S(=O)(=O)C(F)(F)F)c4)cc3)CC2)C1 [Navitoclax] + COc1cc2c(Oc3ccc(NC(=O)C4(C(=O)Nc5ccc(F)cc5)CC4)cc3F)ccnc2cc1OCCCN1CCOCC1 [Foretinib] (partner 0.25 µM)
relative viability (BEN; first compound 0.005 µM): 0.69 | relative viability (BEN; first compound 0.01581 µM): 0.664 | relative viability (BEN; first compound 0.05 µM): 0.604 | relative viability (BEN; first compound 0.1581 µM): 0.719 | relative viability (BEN; first compound 0.5 µM): 0.114 | relative viability (CAL-12T; first compound 0.005 µM): 1.08 | relative viability (CAL-12T; first compound 0.01581 µM): 1.17 | relative viability (CAL-12T; first compound 0.05 µM): 1.16 | relative viability (CAL-12T; first compound 0.1581 µM): 1.11 | relative viability (CAL-12T; first compound 0.5 µM): 1.11 | relative viability (EKVX; first compound 0.005 µM): 1.02 | relative viability (EKVX; first compound 0.01581 µM): 1.01 | relative viability (EKVX; first compound 0.05 µM): 0.544 | relative viability (EKVX; first compound 0.1581 µM): 0.8 | relative viability (EKVX; first compound 0.5 µM): 0.629 | relative viability (HCC-366; first compound 0.005 µM): 0.98 | relative viability (HCC-366; first compound 0.01581 µM): 0.82 | relative viability (HCC-366; first compound 0.1581 µM): 1 | relative viability (HCC-366; first compound 0.5 µM): 0.982 | relative viability (LOU-NH91; first compound 0.005 µM): 0.955 | relative viability (LOU-NH91; first compound 0.01581 µM): 0.932 | relative viability (LOU-NH91; first compound 0.05 µM): 0.941 | relative viability (LOU-NH91; first compound 0.1581 µM): 0.911 | relative viability (LOU-NH91; first compound 0.5 µM): 0.824 | relative viability (LU99A; first compound 0.005 µM): 0.796 | relative viability (LU99A; first compound 0.01581 µM): 0.886 | relative viability (LU99A; first compound 0.05 µM): 0.459 | relative viability (LU99A; first compound 0.1581 µM): 0.804 | relative viability (LU99A; first compound 0.5 µM): 0.799 | relative viability (NCI-H1355; first compound 0.005 µM): 0.993 | relative viability (NCI-H1355; first compound 0.01581 µM): 0.951 | relative viability (NCI-H1355; first compound 0.05 µM): 0.939 | relative viability (NCI-H1355; first compound 0.1581 µM): 0.941 | relative viability (NCI-H1355; first compound 0.5 µM): 0.965 | relative viability (NCI-H1395; first compound 0.005 µM): 1.15 | relative viability (NCI-H1395; first compound 0.01581 µM): 1.19 | relative viability (NCI-H1395; first compound 0.05 µM): 0.865 | relative viability (NCI-H1395; first compound 0.1581 µM): 0.986 | relative viability (NCI-H1395; first compound 0.5 µM): 1.12 | relative viability (NCI-H1437; first compound 0.005 µM): 1.18 | relative viability (NCI-H1437; first compound 0.01581 µM): 1.3 | relative viability (NCI-H1437; first compound 0.05 µM): 1.1 | relative viability (NCI-H1437; first compound 0.1581 µM): 1.31 | relative viability (NCI-H1437; first compound 0.5 µM): 1.27 | relative viability (NCI-H1563; first compound 0.005 µM): 0.948 | relative viability (NCI-H1563; first compound 0.01581 µM): 0.967 | relative viability (NCI-H1563; first compound 0.05 µM): 0.856 | relative viability (NCI-H1563; first compound 0.1581 µM): 0.987 | relative viability (NCI-H1563; first compound 0.5 µM): 1.03 | relative viability (NCI-H1650; first compound 0.005 µM): 1.08 | relative viability (NCI-H1650; first compound 0.01581 µM): 1.48 | relative viability (NCI-H1650; first compound 0.05 µM): 1.12 | relative viability (NCI-H1650; first compound 0.1581 µM): 1.28 | relative viability (NCI-H1650; first compound 0.5 µM): 0.953 | relative viability (NCI-H1651; first compound 0.005 µM): 0.681 | relative viability (NCI-H1651; first compound 0.01581 µM): 0.979 | relative viability (NCI-H1651; first compound 0.05 µM): 0.442 | relative viability (NCI-H1651; first compound 0.1581 µM): 0.809 | relative viability (NCI-H1651; first compound 0.5 µM): 0.847 | relative viability (NCI-H1734; first compound 0.005 µM): 0.887 | relative viability (NCI-H1734; first compound 0.01581 µM): 0.941 | relative viability (NCI-H1734; first compound 0.1581 µM): 0.831 | relative viability (NCI-H1734; first compound 0.5 µM): 0.906 | relative viability (NCI-H1755; first compound 0.005 µM): 0.873 | relative viability (NCI-H1755; first compound 0.01581 µM): 1.01 | relative viability (NCI-H1755; first compound 0.05 µM): 0.735 | relative viability (NCI-H1755; first compound 0.1581 µM): 0.901 | relative viability (NCI-H1755; first compound 0.5 µM): 0.855 | relative viability (NCI-H1975; first compound 0.005 µM): 0.887 | relative viability (NCI-H1975; first compound 0.01581 µM): 1.03 | relative viability (NCI-H1975; first compound 0.05 µM): 1.03 | relative viability (NCI-H1975; first compound 0.1581 µM): 0.914 | relative viability (NCI-H1975; first compound 0.5 µM): 1.04 | relative viability (NCI-H2023; first compound 0.005 µM): 0.912 | relative viability (NCI-H2023; first compound 0.01581 µM): 1.12 | relative viability (NCI-H2023; first compound 0.05 µM): 0.819 | relative viability (NCI-H2023; first compound 0.1581 µM): 0.848 | relative viability (NCI-H2023; first compound 0.5 µM): 0.995 | relative viability (NCI-H2085; first compound 0.005 µM): 0.92 | relative viability (NCI-H2085; first compound 0.01581 µM): 0.98 | relative viability (NCI-H2085; first compound 0.05 µM): 0.989 | relative viability (NCI-H2085; first compound 0.1581 µM): 0.863 | relative viability (NCI-H2085; first compound 0.5 µM): 0.836 | relative viability (NCI-H2342; first compound 0.005 µM): 1.19 | relative viability (NCI-H2342; first compound 0.01581 µM): 1.22 | relative viability (NCI-H2342; first compound 0.05 µM): 0.871 | relative viability (NCI-H2342; first compound 0.1581 µM): 1.1 | relative viability (NCI-H2342; first compound 0.5 µM): 1.16 | relative viability (NCI-H358; first compound 0.005 µM): 0.743 | relative viability (NCI-H358; first compound 0.01581 µM): 0.946 | relative viability (NCI-H358; first compound 0.05 µM): 0.613 | relative viability (NCI-H358; first compound 0.1581 µM): 0.645 | relative viability (NCI-H358; first compound 0.5 µM): 0.728 | relative viability (NCI-H441; first compound 0.005 µM): 0.958 | relative viability (NCI-H441; first compound 0.01581 µM): 1.05 | relative viability (NCI-H441; first compound 0.05 µM): 1.05 | relative viability (NCI-H441; first compound 0.1581 µM): 0.945 | relative viability (NCI-H441; first compound 0.5 µM): 0.948 | relative viability (NCI-H460; first compound 0.005 µM): 0.991 | relative viability (NCI-H460; first compound 0.01581 µM): 1.02 | relative viability (NCI-H460; first compound 0.05 µM): 0.713 | relative viability (NCI-H460; first compound 0.1581 µM): 1.01 | relative viability (NCI-H460; first compound 0.5 µM): 0.941 | relative viability (NCI-H838; first compound 0.005 µM): 0.976 | relative viability (NCI-H838; first compound 0.01581 µM): 1.09 | relative viability (NCI-H838; first compound 0.05 µM): 1.19 | relative viability (NCI-H838; first compound 0.1581 µM): 1.01 | relative viability (NCI-H838; first compound 0.5 µM): 1.03
